Key:
SW480 (G12V) = assay: In vitro cell proliferation inhibition test (CellTiter-Glo Luminescent Cell Viability Assay); type: cell-based; conditions: SW480 cell line, Large intestine, Colon, KRAS (p.G12V), cells and compounds co-incubated 72 hours
Summary of the method: (§1)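 Cells were seeded at 1000-5000/well and cultured overnight, then exposed to compound (top final 10 µM, ten 3-fold dilutions) for 72 h at 37°C, 5% CO2. Viability was read by CellTiter-Glo luminescence; IC50 was obtained from four-parameter fits of normalized signal.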

AsPC-1 (G12D) = assay: as above; type: cell-based; conditions: AsPC-1 cell line, Pancreas, KRAS (p.G12D), cells and compounds co-incubated 72 hours
Summary of the method: as §1

Compound | IC50 (SW480 (G12V)) [nM] | IC50 (AsPC-1 (G12D)) [nM] | other results
CCn1c(-c2cc(C#CC3CCN(C)C3)cnc2C(C)OC)c2c3cc(ccc31)-c1csc(n1)CC(NC(=O)C1C(C)C1C)C(=O)N1CCCC(N1)C(=O)OCC(C)(C)C2 (single isomer, unassigned) [Example 18] | 0.42 | 3.4 | 
CCn1c(-c2cc(C#CCN3CCO[C@@H](C)C3)cnc2[C@H](C)OC)c2c3cc(ccc31)-c1csc(n1)C[C@H](NC(=O)[C@H]1C[C@@H]1C)C(=O)N1CCC[C@H](N1)C(=O)OCC(C)(C)C2 (single isomer, unassigned) [Example 4] | 2.9 | 4.9 | IC50 (SW480 (G12V); listed as 4'): 813 nM; IC50 (AsPC-1 (G12D); listed as 4'): 523 nM
CCn1c(-c2cc(C#Cc3cnc(N)cn3)cnc2[C@H](C)OC)c2c3cc(ccc31)-c1csc(n1)C[C@H](NC(=O)[C@H]1C[C@@H]1C)C(=O)N1CCC[C@H](N1)C(=O)OCC(C)(C)C2 [Example 35, (1S,2S)-N-((6^3S,4S,Z)-1^2-(5-((5-aminopyrazin-2-yl)ethynyl)-2-((S)-1-methoxyethyl)pyridin-3-yl)-1^1-ethyl-10,10-dimethyl-5,7-dioxo-6^1,6^2,6^3,6^4,6^5,6^6-hexahydro-1^1H-8-oxa-2(4,2)-thiazola-1(5,3)-indola-6(1,3)-pyridazinacycloundecaphane-4-yl)-2-methylcyclopropane-1-carboxamide] |  |  | IC50 (SW480 (G12V); Homo sapiens): 37 nM; IC50 (AsPC-1 (G12D); Homo sapiens, ASPC1): 56 nM
CCn1c(-c2cc(C#CC3CN(C)CCS3(=N)=O)cnc2C(C)OC)c2c3cc(ccc31)-c1csc(n1)CC(NC(=O)C1CC1C)C(=O)N1CCCC(N1)C(=O)OCC(C)(C)C2 [Example 51, (1S,2S)-N-((6^3S,4S,Z)-1^1-ethyl-1^2-(5-(((2S)-1-imino-4-methyl-1-oxido-1λ^6-thiomorpholin-2-yl)ethynyl)-2-((S)-1-methoxyethyl)pyridin-3-yl)-10,10-dimethyl-5,7-dioxo-6^1,6^2,6^3,6^4,6^5,6^6-hexahydro-1^1H-8-oxa-2(4,2)-thiazola-1(5,3)-indola-6(1,3)-pyridazinacycloundecaphane-4-yl)-2-methylcyclopropane-1-carboxamide] | 5.4 | 4.5 | 
CCn1c(-c2cc(C#CCN3CCN(C(C)=O)CC3)cnc2C(C)OC)c2c3cc(ccc31)-c1csc(n1)CC(NC(=O)C1C(C)C1C)C(=O)N1CCCC(N1)C(=O)OCC(C)(C)C2 [Example 41, (1r,2R,3S)-N-((6^3S,4S,Z)-1^2-(5-(3-(4-acetylpiperazin-1-yl)prop-1-yn-1-yl)-2-((S)-1-methoxyethyl)pyridin-3-yl)-1^1-ethyl-10,10-dimethyl-5,7-dioxo-6^1,6^2,6^3,6^4,6^5,6^6-hexahydro-1^1H-8-oxa-2(4,2)-thiazola-1(5,3)-indola-6(1,3)-pyridazinacycloundecaphane-4-yl)-2,3-dimethylcyclopropane-1-carboxamide] | 0.65 | 0.56 | 
CCn1c(-c2cc(C#CCN3CCOCC3)cnc2[C@H](C)OC)c2c3cc(ccc31)-c1csc(n1)C[C@H](NC(=O)[C@H]1C[C@@H]1c1ccccc1)C(=O)N1CCC[C@H](N1)C(=O)OCC(C)(C)C2 (single isomer, unassigned) [Example 23] | 3.8 | 1.6 | 
CCn1c(-c2cc(C#CCN3CCOCC3)cnc2[C@H](C)OC)c2c3cc(ccc31)-c1csc(n1)C[C@H](NC(=O)[C@H]1[C@H](C)[C@@H]1C)C(=O)N1CCC[C@H](N1)C(=O)OCC(C)(C)C2 [Example 2, (1r,2R,3S)-N-((63S,4S,Z)-11-ethyl-12-(2-((S)-1-methoxyethyl)-5-(3-morpholinoprop-1-yn-1-yl)pyridin-3-yl)-10,10-dimethyl-5,7-dioxo-61,62,63,64,65,66-hexahydro-11H-8-oxa-2(4,2)-thiazola-1(5,3)-indola-6(1,3)-pyridazinacycloundecaphane-4-yl)-2,3-dimethylcyclopropane-1-carboxamide] | 0.33 | 0.25 | IC50 (SW480 (G12V); listed as 2'): 74 nM; IC50 (AsPC-1 (G12D); listed as 2'): 172 nM
CCn1c(-c2cc(C#CCN3CCP(C)(=O)CC3)cnc2[C@H](C)OC)c2c3cc(ccc31)-c1csc(n1)C[C@H](NC(=O)[C@H]1C[C@@H]1C)C(=O)N1CCC[C@H](N1)C(=O)OCC(C)(C)C2 [Example 49, (1S,2S)-N-((6^3S,4S,Z)-1^1-ethyl-1^2-(2-((S)-1-methoxyethyl)-5-(3-(4-methyl-4-oxido-1,4-azaphosphinan-1-yl)prop-1-yn-1-yl)pyridin-3-yl)-10,10-dimethyl-5,7-dioxo-6^1,6^2,6^3,6^4,6^5,6^6-hexahydro-1^1H-8-oxa-2(4,2)-thiazola-1(5,3)-indola-6(1,3)-pyridazinacycloundecaphane-4-yl)-2-methylcyclopropane-1-carboxamide] | 9.2 | 7.5 | 
(1S,2S)-N-((6^3S,4S,Z)-1^2-(5-(3-(dimethylamino)prop-1-yn-1-yl)-2-((S)-1-methoxyethyl)pyridin-3-yl)-1^1-ethyl-10,10-dimethyl-5,7-dioxo-6^1,6^2,6^3,6^4,6^5,6^6-hexahydro-1^1H-8-oxa-2(4,2)-thiazola-1(5,3)-indola-6(1,3)-pyridazinacycloundecaphane-4-yl)-2-methylcyclopropane-1-carboxamide [Example 61] | 1.58 | 5 | 
(1S,2S)-N-((6^3S,4S,Z)-1^1-ethyl-1^2-(2-((S)-1-methoxyethyl)-5-(pyrimidin-5-ylethynyl)pyridin-3-yl)-10,10-dimethyl-5,7-dioxo-6^1,6^2,6^3,6^4,6^5,6^6-hexahydro-1^1H-8-oxa-2(4,2)-thiazola-1(5,3)-indola-6(1,3)-pyridazinacycloundecaphane-4-yl)-2-methylcyclopropane-1-carboxamide [Example 22] | 19.2 | 6.5 | 
CCn1c(-c2cc(C#Cc3cccc4ccn(C)c34)cnc2[C@H](C)OC)c2c3cc(ccc31)-c1csc(n1)C[C@H](NC(=O)[C@H]1C[C@@H]1C)C(=O)N1CCC[C@H](N1)C(=O)OCC(C)(C)C2 [Example 47, (1S,2S)-N-((6^3S,4S,Z)-1^1-ethyl-1^2-(2-((S)-1-methoxyethyl)-5-((1-methyl-1H-indol-7-yl)ethynyl)pyridin-3-yl)-10,10-dimethyl-5,7-dioxo-6^1,6^2,6^3,6^4,6^5,6^6-hexahydro-1^1H-8-oxa-2(4,2)-thiazola-1(5,3)-indola-6(1,3)-pyridazinacycloundecaphane-4-yl)-2-methylcyclopropane-1-carboxamide] |  |  | IC50 (SW480 (G12V); Homo sapiens): 116 nM; IC50 (AsPC-1 (G12D); Homo sapiens, ASPC1): 456 nM
CCn1c(-c2cc(C#CCN(C)C3CCOCC3)cnc2C(C)OC)c2c3cc(ccc31)-c1csc(n1)CC(NC(=O)C1C(C)C1C)C(=O)N1CCCC(N1)C(=O)OCC(C)(C)C2 [Example 36, (1r,2R,3S)-N-((6^3S,4S,Z)-1^1-ethyl-1^2-(2-((S)-1-methoxyethyl)-5-(3-(methyl(tetrahydro-2H-pyran-4-yl)amino)prop-1-yn-1-yl)pyridin-3-yl)-10,10-dimethyl-5,7-dioxo-6^1,6^2,6^3,6^4,6^5,6^6-hexahydro-1^1H-8-oxa-2(4,2)-thiazola-1(5,3)-indola-6(1,3)-pyridazinacycloundecaphane-4-yl)-2,3-dimethylcyclopropane-1-carboxamide] | 0.54 | 0.73 | 
CCn1c(-c2cc(C#Cc3cncnc3N)cnc2C(C)OC)c2c3cc(ccc31)-c1csc(n1)CC(NC(=O)C1C(C)C1C)C(=O)N1CCCC(N1)C(=O)OCC(C)(C)C2 [Example 34, (1r,2R,3S)-N-((6^3S,4S,Z)-1^2-(5-((4-aminopyrimidin-5-yl)ethynyl)-2-((S)-1-methoxyethyl)pyridin-3-yl)-1^1-ethyl-10,10-dimethyl-5,7-dioxo-6^1,6^2,6^3,6^4,6^5,6^6-hexahydro-1^1H-8-oxa-2(4,2)-thiazola-1(5,3)-indola-6(1,3)-pyridazinacycloundecaphane-4-yl)-2,3-dimethylcyclopropane-1-carboxamide] | 0.75 | 1.3 | 
CCn1c(-c2cc(C#Cc3cnccn3)cnc2[C@H](C)OC)c2c3cc(ccc31)-c1csc(n1)C[C@H](NC(=O)[C@H]1C[C@@H]1C)C(=O)N1CCC[C@H](N1)C(=O)OCC(C)(C)C2 (single isomer, unassigned) [Example 27] | 14.5 | 4.6 | 
CCn1c(-c2cc(C#C[C@@H]3CCN(C)C3)cnc2[C@H](C)OC)c2c3cc(ccc31)-c1csc(n1)C[C@H](NC(=O)C1[C@@H](C)[C@H]1C)C(=O)N1CCC[C@H](N1)C(=O)OCC(C)(C)C2 (some centres unmarked) [Example 14] | 0.2 | < 0.1 | IC50 (AsPC-1 (G12D); listed as 14'): 57.1 nM
CCn1c(-c2cc(C#CC3CN(C)CCO3)cnc2C(C)OC)c2c3cc(ccc31)-c1csc(n1)CC(NC(=O)C1CC1C)C(=O)N1CCCC(N1)C(=O)OCC(C)(C)C2 (single isomer, unassigned) [Example 8] | 18.9 | 17.9 | IC50 (SW480 (G12V); listed as 8'): 2030 nM; IC50 (AsPC-1 (G12D); listed as 8'): 3870 nM
CCn1c(-c2cc(C#CC3(C)CN(C)C3)cnc2C(C)OC)c2c3cc(ccc31)-c1csc(n1)CC(NC(=O)C1C(C)C1C)C(=O)N1CCCC(N1)C(=O)OCC(C)(C)C2 (single isomer, unassigned) [Example 19] | 1.5 | 2.2 | 

Source: patent EP4582426A1, “PAN-KRAS INHIBITOR COMPOUND” (Adlai Nortye Biopharma Co., Ltd., priority 2022, dated 2024)
